Data as given in patent US11180462B2, “Microbiocidal oxadiazole derivatives” (SYNGENTA PARTICIPATIONS AG, priority 2015, dated 2021).

System: Glomerella lagenarium (Colletotrichum lagenarium)
Experiment: Fungicidal activity against Glomerella lagenarium (Colletotrichum lagenarium) liquid culture / cucumber / preventative (anthracnose)
Format: cell-based
Settings: Colletotrichum orbiculare; 20 ppm in the applied formulation; liquid culture (PDB), growth inhibition measured photometrically after 3 to 4 days; compared to untreated control; read-out: disease control
Outline: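 Photometric read-out of fungal growth after 2–7 days, expressed as percent antifungal activity versus untreated check. Cryo-stored conidia in PDB; compound at 20 ppm; dark, 24 °C, 96% RH.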

Row | Structure (SMILES) | inhibition of growth at 20 ppm [%]
1 | N#CCC(=O)N(Cc1ccc(-c2noc(C(F)(F)F)n2)cc1)Cc1ccco1 [Compound 1.470, 2-cyano-N-(2-furylmethyl)-N-[[4-[5-(trifluoromethyl)-1,2,4-oxadiazol-3-yl]phenyl]methyl]-acetamide] | ≥ 80
2 | COCCC(=O)N(Cc1ccc(-c2noc(C(F)(F)F)n2)cc1)OCC=C(Cl)Cl [Compound 1.533, N-(3,3-dichloroallyloxy)-3-methoxy-N-[[4-[5-(trifluoromethyl)-1,2,4-oxadiazol-3-yl]phenyl]methyl]-propanamide] | ≥ 80
3 | CCC(=O)N(Cc1ccc(-c2noc(C(F)(F)F)n2)cc1)OCC=C(Cl)Cl [Compound 1.534, N-(3,3-dichloroallyloxy)-N-[[4-[5-(trifluoromethyl)-1,2,4-oxadiazol-3-yl]phenyl]methyl]-propanamide] | ≥ 80
4 | COCC(=O)N(Cc1ccc(-c2noc(C(F)(F)F)n2)cc1)OCC=C(Cl)Cl [Compound 1.535, N-(3,3-dichloroallyloxy)-2-methoxy-N-[[4-[5-(trifluoromethyl)-1,2,4-oxadiazol-3-yl]phenyl]methyl]-acetamide] | ≥ 80
5 | CC1CC1C(=O)N(Cc1ccc(-c2noc(C(F)(F)F)n2)cc1)OCC=C(Cl)Cl (stereo not shown) [Compound 1.536, N-(3,3-dichloroallyloxy)-2-methyl-N-[[4-[5-(trifluoromethyl)-1,2,4-oxadiazol-3-yl]phenyl]methyl]-cyclopropane-carboxamide] | ≥ 80
6 | O=C(CCl)N(Cc1ccc(-c2noc(C(F)(F)F)n2)cc1)OCC=C(Cl)Cl [Compound 1.538, 2-chloro-N-(3,3-dichloroallyloxy)-N-[[4-[5-(trifluoromethyl)-1,2,4-oxadiazol-3-yl]phenyl]methyl]-acetamide] | ≥ 80
7 | CC(C)C(=O)N(Cc1ccc(-c2noc(C(F)(F)F)n2)cc1)OCC=C(Cl)Cl [Compound 1.539, N-(3,3-dichloroallyloxy)-2-methyl-N-[[4-[5-(trifluoromethyl)-1,2,4-oxadiazol-3-yl]phenyl]methyl]-propanamide] | ≥ 80
8 | O=C(C1CC1(F)F)N(Cc1ccc(-c2noc(C(F)(F)F)n2)cc1)OCC=C(Cl)Cl (stereo not shown) [Compound 1.540, N-(3,3-dichloroallyloxy)-2,2-difluoro-N-[[4-[5-(trifluoromethyl)-1,2,4-oxadiazol-3-yl]phenyl]methyl]-cyclopropane-carboxamide] | ≥ 80
9 | CCCC(=O)N(Cc1ccc(-c2noc(C(F)(F)F)n2)cc1)OCC=C(Cl)Cl [Compound 1.541, N-(3,3-dichloroallyloxy)-N-[[4-[5-(trifluoromethyl)-1,2,4-oxadiazol-3-yl]phenyl]methyl]-butanamide] | ≥ 80
10 | CCC(C)C(=O)N(Cc1ccc(-c2noc(C(F)(F)F)n2)cc1)OCC=C(Cl)Cl (stereo not shown) [Compound 1.542, N-(3,3-dichloroallyloxy)-2-methyl-N-[[4-[5-(trifluoromethyl)-1,2,4-oxadiazol-3-yl]phenyl]methyl]-butanamide] | ≥ 80
11 | COCCCC(=O)N(Cc1ccc(-c2noc(C(F)(F)F)n2)cc1)OCC=C(Cl)Cl [Compound 1.543, N-(3,3-dichloroallyloxy)-4-methoxy-N-[[4-[5-(trifluoromethyl)-1,2,4-oxadiazol-3-yl]phenyl]methyl]-butanamide] | ≥ 80
12 | CC1(C(=O)N(Cc2ccc(-c3noc(C(F)(F)F)n3)cc2)OCC=C(Cl)Cl)COC1 [Compound 1.544, N-(3,3-dichloroallyloxy)-3-methyl-N-[[4-[5-(trifluoromethyl)-1,2,4-oxadiazol-3-yl]phenyl]methyl]-oxetane-3-carboxamide] | ≥ 80
13 | O=C(C1CC1F)N(Cc1ccc(-c2noc(C(F)(F)F)n2)cc1)OCC=C(Cl)Cl (stereo not shown) [Compound 1.545, N-(3,3-dichloroallyloxy)-2-fluoro-N-[[4-[5-(trifluoromethyl)-1,2,4-oxadiazol-3-yl]phenyl]methyl]-cyclopropane-carboxamide] | ≥ 80
